The source of these data is patent US9272054B2, “Agents for the molecular imaging of serine-protease in human pathologies” (Institut National de la Sante et de la Recherche Medicale …, priority 2010, dated 2016).

Square brackets hold non-standard residues; d marks the D form. Peptide text beside a SMILES is read from it. * marks the point of attachment. DOTA = O=C(O)CN1CCN(CC(=O)O)CCN(CC(=O)*)CCN(CC(=O)O)CC1; DTPA = O=C(O)CN(CCN(CC(=O)O)CC(=O)O)CCN(CC(=O)O)CC(=O)*; CH2Cl = ClC*

Series [1] deals with localized lesion / thrombus. To be noted: rat. From the text: we have used several experimental models of endovascular thrombus formation in rats, which have been already developed for molecular molecular imaging of platelet activation and fibrin formation, including aneurysm of the abdominal aorta {Sarda-Mantel, 2006}, endocarditic vegetations {Rouzet, 2008}. Aneurysm of the aorta was induced by matrix decellularized xenograft in rats {Allaire, 1996}, and endocarditis by left or right ventricle catheterization followed by provoked bacteraemia {Rouzet, 2008} as previously described. These thrombus models were completed by a model of stroke, provoked by cerebral autologous thrombus emboli in rats (reference). […]
Relevant tissues (heart, abdominal aorta, or brain according to the model) were carefully dissected, frozen and cut into transverse sections of 20 μm thickness, which were exposed in a digital radioimager (Instant Imager, Packard, Meriden, USA) for 12 hours. The activity normalized to the region of interest area (mean counts/min/mm^2 corrected for background activity) was determined on autoradiograms. Quantification was performed by calculating the ratio between the activity of the relevant tissue and the activity of a region of interest drawn on either normal myocardium remote from the vegetation in the endocarditis model, supra-renal aorta sample in the AAA model, or the contralateral brain hemisphere in the stroke model. […]

The target of series [2] is T1, plasmin from human plasma (Homo sapiens, UniProt P00747).
T1 construct: plasmin from human plasma (calbiochem); purchased calbiochem; host or cells: human plasma
Nature of the series: Determination of plasmin activity with fluorescent substrate Suc-Ala-Phe-Lys-AMC. To be noted: for % of plasmin activity (mean): 10 nM plasmin, 15 min pre-incubation at room temperature, n=4. The series is classed as biochemical. As for the experimental part:
Plasmin with or without inhibitors was incubated at room temperature for 15 min. The fluorescent substrate (40 μM) was added just before reading (λ excitation 390 nm, λ emission 460 nm)
10 nM of plasmin from human plasma (calbiochem) was diluted in Tris-HCl buffer pH 7.4 50 mM, NaCl 100 mM and Tween-20 0.01%. The samples were then incubated or not with the different inhibitors (see below) for 15 minutes at room temperature. Then, the fluorescent substrate (Suc-Ala-Phe-Lys-AMC, […]) was added just before reading (λ excitation 390 nm, λ emission 460 nm) on the Fluoroskan Ascent plate reader (Thermo Fisher). The fluorescence intensity was evaluated every 10 minutes for 2 hours at 37° C.—The integration time for each measure was 20 ms.
Each inhibitor was tested in a range of concentrations from 5 nM up to 1000 nM. All the inhibitors were tested in duplicates for each concentration and 4 independent experiments were performed.
Results are presented as % of active plasmin. The differences between the concentrations of each inhibitor were evaluated by paired t-test using StatView software. Statistical significance was accepted when p<0.05.

In another series the target is plasmin (Homo sapiens, UniProt P00747). To be noted: competitive inhibitor of plasmin; Chi, 1989; cited from earlier work.
plasmin, sequence (P00747 581-810 limits assumed, species assumed): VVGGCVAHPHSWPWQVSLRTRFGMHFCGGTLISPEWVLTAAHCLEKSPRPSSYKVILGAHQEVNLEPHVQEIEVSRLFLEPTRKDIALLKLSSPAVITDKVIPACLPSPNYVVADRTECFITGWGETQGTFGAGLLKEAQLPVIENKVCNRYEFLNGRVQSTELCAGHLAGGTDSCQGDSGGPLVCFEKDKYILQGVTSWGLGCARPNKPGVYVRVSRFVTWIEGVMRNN
plasmin, sequence (P00747 97-580 partner limits assumed, species assumed): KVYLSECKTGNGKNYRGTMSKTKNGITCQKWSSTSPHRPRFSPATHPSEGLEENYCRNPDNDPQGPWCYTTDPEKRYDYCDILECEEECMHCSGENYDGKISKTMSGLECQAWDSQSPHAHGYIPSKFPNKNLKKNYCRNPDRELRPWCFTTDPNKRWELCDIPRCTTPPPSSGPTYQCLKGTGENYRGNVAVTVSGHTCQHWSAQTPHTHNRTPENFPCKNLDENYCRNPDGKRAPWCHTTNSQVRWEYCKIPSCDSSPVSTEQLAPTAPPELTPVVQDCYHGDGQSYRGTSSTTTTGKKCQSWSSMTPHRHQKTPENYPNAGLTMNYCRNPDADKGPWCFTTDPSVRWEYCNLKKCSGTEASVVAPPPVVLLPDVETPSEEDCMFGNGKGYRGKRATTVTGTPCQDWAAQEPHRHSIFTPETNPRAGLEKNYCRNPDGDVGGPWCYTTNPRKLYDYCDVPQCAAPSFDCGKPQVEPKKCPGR

T1 sequence (P00747 581-810 limits assumed): as the sequence (P00747 581-810 limits assumed, species assumed) above
T1 sequence (P00747 97-580 partner limits assumed): as the sequence (P00747 97-580 partner limits assumed, species assumed) above

As for `CC(C)[C@@H](NC(=O)CNC(=O)CN(CCN(CCN(CC(=O)O)CC(=O)O)CC(=O)O)CC(=O)O)C(=O)N[C@@H](Cc1ccccc1)C(=O)N[C@@H](CCCCN)C(=O)CCl` [99mTc-DTPA-G-dVFKcmk, metal not drawn] ({DTPA}-G[dV]FK-CH2Cl), the “in vivo uptake by bone marrow” value in series [1] is recorded as “high”.

In the case of `CC(C)[C@@H](NC(=O)CNC(=O)CN1CCN(CC(=O)O)CCN(CC(=O)O)CCN(CC(=O)O)CC1)C(=O)N[C@@H](Cc1ccccc1)C(=O)N[C@@H](CCCCN)C(=O)CCl` [PL 701, DOTA-G-dV-F—K-cmk] ({DOTA}-G[dV]FK-CH2Cl), the “% of plasmin activity (mean)” value is given as 83.0% in series [2] (inhibitor 5 nM); 79.1% in series [2] (inhibitor 10 nM); 68.7% in series [2] (inhibitor 50 nM); 54.6% in series [2] (inhibitor 100 nM); 34.1% in series [2] (inhibitor 500 nM); 12.8% in series [2] (inhibitor 1000 nM).

`CC(C)[C@@H](NC(=O)CNC(=O)CN1CCN(CC(=O)O)CCN(CC(=O)O)CCN(CC(=O)O)CC1)C(=O)N[C@@H](Cc1ccccc1)C(=O)N[C@@H](C)C(=O)CCl` [PL 703, DOTA-G-dV-F-A-cmk] ({DOTA}-G[dV]FA-CH2Cl): the “% of plasmin activity (mean)” value is recorded as 94.9% in series [2] (inhibitor 5 nM); 93.6% in series [2] (inhibitor 10 nM); 86.1% in series [2] (inhibitor 50 nM); 84.1% in series [2] (inhibitor 100 nM); 58.4% in series [2] (inhibitor 500 nM); 48.4% in series [2] (inhibitor 1000 nM).

Turning to `CC(C)[C@@H](NC(=O)CNC(=O)CN(CCN(CCN(CC(=O)O)CC(=O)O)CC(=O)O)CC(=O)O)C(=O)N[C@@H](Cc1ccccc1)C(=O)N[C@@H](CCCCN)C(=O)CCl` [PL 704, DTPA-G-dV-F—K-cmk] ({DTPA}-G[dV]FK-CH2Cl), the “% of plasmin activity (mean)” value in series [2] (inhibitor 5 nM) was 56.3%; in series [2] (inhibitor 10 nM) it was 46.2%; in series [2] (inhibitor 50 nM) it was 27.4%; in series [2] (inhibitor 100 nM), 16.6%; in series [2] (inhibitor 500 nM), 4.0%; in series [2] (inhibitor 1000 nM), 1.1%.

For orientation: Ki means the equilibrium dissociation constant of an inhibitor or competing ligand from its target. Take `CC(=O)N[C@@H](CC(C)C)C(=O)N[C@@H](CC(C)C)C(=O)N[C@H](C=O)CCCNC(=N)N` [leupeptin, Ac-Leu-Leu-Arg-H]: the Ki on plasmin was roughly 100 nM.

As for “D-Val-Phe-Lys-COCH2Cl [VFK, reference compound]”, the “% of plasmin activity (mean)” value turned out to be 77.1% in series [2] (inhibitor 5 nM); 68.3% in series [2] (inhibitor 10 nM); 39.1% in series [2] (inhibitor 50 nM); 11.9% in series [2] (inhibitor 100 nM); 8.0% in series [2] (inhibitor 500 nM); 7.8% in series [2] (inhibitor 1000 nM).

For the molecule G-dV-F-A-cmk [PL 702], the “% of plasmin activity (mean)” value in series [2] (inhibitor 5 nM) is listed as 102.3%; in series [2] (inhibitor 10 nM), 123.5%; in series [2] (inhibitor 50 nM), 122.9%; in series [2] (inhibitor 100 nM), 113.3%; in series [2] (inhibitor 500 nM), 112.1%; in series [2] (inhibitor 1000 nM), 107.3%. In series [2] (range 5 nM to 1000 nM), the “inhibitory effect on plasmin activity (in words)” value was “totally abolished”.

On to G-dV-F—K-cmk [PL 700], for which the “% of plasmin activity (mean)” value is on record as 89.8% in series [2] (inhibitor 5 nM); 95.6% in series [2] (inhibitor 10 nM); 65.7% in series [2] (inhibitor 50 nM); 43.1% in series [2] (inhibitor 100 nM); 15.8% in series [2] (inhibitor 500 nM); 5.8% in series [2] (inhibitor 1000 nM).
